Drawing on patent US8952034B2, “Fused heterocyclic compounds as ion channel modulators” (Gilead Sciences, Inc., priority 2009, dated 2015), this text covers inhibition for 30 molecules.

The test deals with wild-type human cardiac sodium channel, hNav1.5 (Homo sapiens, UniProt Q14524). Kind of test: Late INa screening assay (automated whole cell patch clamp, PatchXpress). It is filed as cell-based. The note with it: HEK293 cells expressing hNav1.5, late INa generated with 10 μM Tefluthrin (or 50 nM ATX II); for inhibition at 10 µM: compound at 10 μM, read-out: LateINa_10 uM (percent block of late INa); for inhibition at 1 µM: compound at 1 μM, read-out: LateINa_1 uM (percent block of late INa). The protocol:
The late sodium current (Late INa) and peak sodium current (Peak INa) assays are performed on an automated electrophysiology platform, PatchXpress 7000A (MDS Analytical Technologies, Sunnyvale, Calif.), which uses the whole cell patch clamp technique to measure currents through the cell membrane of up to 16 cells at a time. The assay uses an HEK293 (human embryonic kidney) cell line heterologously expressing the wild-type human cardiac sodium channel, hNav1.5, purchased from Millipore (Billerica, Mass.). No beta subunits were coexpressed with the Na channel alpha subunit. Cells are maintained with standard tissue culture procedures and stable channel expression is maintained with 400 μg/ml Geneticin in the culture medium. […] Experiments are carried out at 24-27° C.
For both the Late INa and Peak INa assays, series resistance compensation is set to 50% and whole-cell compensation is performed automatically. […] Currents through open sodium channels are automatically recorded and stored in the DataXpress2 database (MDS Analytical Technologies, Sunnyvale, Calif.). Analysis is performed using DataXpress2 analysis software and data are compiled in Excel.
Compound stocks are routinely made in glass vials to 10 mM in dimethyl sulfoxide (DMSO). In some cases, when compounds are not soluble in DMSO, they are made in 100% ethanol. Stocks are sonicated as necessary. The extracellular solution for screening Late INa is composed of: 140 mM NaCl, 4 mM KCl, 1.8 mM CaCl2, 0.75 mM MgCl2, and 5 mM HEPES with pH adjusted to 7.4 using NaOH. The extracellular solution for screening Peak INa is composed of: 20 mM NaCl, 120 mM N-methyl-D glucamine, 4 mM KCl, 1.8 mM CaCl2, 0.75 mM MgCl2, and 5 mM HEPES with pH adjusted to 7.4 using HCl. The intracellular solution used to perfuse the inside of the cells for both the Late INa and Peak INa assays contains: 120 mM CsF, 20 mM CsCl, 5 mM EGTA, 5 mM HEPES and pH adjusted to 7.4 with CsOH. […] The 0Na extracellular solution used at the end of each experiment for the Late INa and Peak INa assays to measure baseline current contains: 140 mM N-methyl-D-glucamine; 4 mM KCl; 1.8 mM CaCl2; 0.75 mM MgCl2; 5 mM HEPES and pH was adjusted to 7.4 with HCl.
For the Late INa assay, sodium channels are activated every 10 seconds (0.1 Hz) by depolarizing the cell membrane to −20 mV for 250 milliseconds (ms) from a holding potential of −120 mV. In response to a −20 mV voltage step, typical Nav1.5 sodium currents activate rapidly to a peak negative current and then inactivate nearly completely within […].
All compounds are tested to determine their activity in blocking the late sodium current. Late INa current is generated by adding 10 μM Tefluthrin (pyrethroid) to the extracellular solution while recording Na currents For some experiments, 50 nM ATX II (sea anemone toxin), another late INa activator, was used to generate the late component. […] After establishing the whole cell recording configuration, late INa activators are added to each well 4 times over a 16-17 minute period so that the late component of the Na current reaches a stable value. […] Measurements are made at the end of exposure to the third compound addition and values are normalized to the current level when all Na^+ is removed from the extracellular solution after two additions of 0Na-ECF. Results are reported as percent block of late INa
For orientation: Patch clamp records ionic current or voltage across a cell membrane.

Chain of wild-type human cardiac sodium channel, hNav1.5 (Q14524 whole entry): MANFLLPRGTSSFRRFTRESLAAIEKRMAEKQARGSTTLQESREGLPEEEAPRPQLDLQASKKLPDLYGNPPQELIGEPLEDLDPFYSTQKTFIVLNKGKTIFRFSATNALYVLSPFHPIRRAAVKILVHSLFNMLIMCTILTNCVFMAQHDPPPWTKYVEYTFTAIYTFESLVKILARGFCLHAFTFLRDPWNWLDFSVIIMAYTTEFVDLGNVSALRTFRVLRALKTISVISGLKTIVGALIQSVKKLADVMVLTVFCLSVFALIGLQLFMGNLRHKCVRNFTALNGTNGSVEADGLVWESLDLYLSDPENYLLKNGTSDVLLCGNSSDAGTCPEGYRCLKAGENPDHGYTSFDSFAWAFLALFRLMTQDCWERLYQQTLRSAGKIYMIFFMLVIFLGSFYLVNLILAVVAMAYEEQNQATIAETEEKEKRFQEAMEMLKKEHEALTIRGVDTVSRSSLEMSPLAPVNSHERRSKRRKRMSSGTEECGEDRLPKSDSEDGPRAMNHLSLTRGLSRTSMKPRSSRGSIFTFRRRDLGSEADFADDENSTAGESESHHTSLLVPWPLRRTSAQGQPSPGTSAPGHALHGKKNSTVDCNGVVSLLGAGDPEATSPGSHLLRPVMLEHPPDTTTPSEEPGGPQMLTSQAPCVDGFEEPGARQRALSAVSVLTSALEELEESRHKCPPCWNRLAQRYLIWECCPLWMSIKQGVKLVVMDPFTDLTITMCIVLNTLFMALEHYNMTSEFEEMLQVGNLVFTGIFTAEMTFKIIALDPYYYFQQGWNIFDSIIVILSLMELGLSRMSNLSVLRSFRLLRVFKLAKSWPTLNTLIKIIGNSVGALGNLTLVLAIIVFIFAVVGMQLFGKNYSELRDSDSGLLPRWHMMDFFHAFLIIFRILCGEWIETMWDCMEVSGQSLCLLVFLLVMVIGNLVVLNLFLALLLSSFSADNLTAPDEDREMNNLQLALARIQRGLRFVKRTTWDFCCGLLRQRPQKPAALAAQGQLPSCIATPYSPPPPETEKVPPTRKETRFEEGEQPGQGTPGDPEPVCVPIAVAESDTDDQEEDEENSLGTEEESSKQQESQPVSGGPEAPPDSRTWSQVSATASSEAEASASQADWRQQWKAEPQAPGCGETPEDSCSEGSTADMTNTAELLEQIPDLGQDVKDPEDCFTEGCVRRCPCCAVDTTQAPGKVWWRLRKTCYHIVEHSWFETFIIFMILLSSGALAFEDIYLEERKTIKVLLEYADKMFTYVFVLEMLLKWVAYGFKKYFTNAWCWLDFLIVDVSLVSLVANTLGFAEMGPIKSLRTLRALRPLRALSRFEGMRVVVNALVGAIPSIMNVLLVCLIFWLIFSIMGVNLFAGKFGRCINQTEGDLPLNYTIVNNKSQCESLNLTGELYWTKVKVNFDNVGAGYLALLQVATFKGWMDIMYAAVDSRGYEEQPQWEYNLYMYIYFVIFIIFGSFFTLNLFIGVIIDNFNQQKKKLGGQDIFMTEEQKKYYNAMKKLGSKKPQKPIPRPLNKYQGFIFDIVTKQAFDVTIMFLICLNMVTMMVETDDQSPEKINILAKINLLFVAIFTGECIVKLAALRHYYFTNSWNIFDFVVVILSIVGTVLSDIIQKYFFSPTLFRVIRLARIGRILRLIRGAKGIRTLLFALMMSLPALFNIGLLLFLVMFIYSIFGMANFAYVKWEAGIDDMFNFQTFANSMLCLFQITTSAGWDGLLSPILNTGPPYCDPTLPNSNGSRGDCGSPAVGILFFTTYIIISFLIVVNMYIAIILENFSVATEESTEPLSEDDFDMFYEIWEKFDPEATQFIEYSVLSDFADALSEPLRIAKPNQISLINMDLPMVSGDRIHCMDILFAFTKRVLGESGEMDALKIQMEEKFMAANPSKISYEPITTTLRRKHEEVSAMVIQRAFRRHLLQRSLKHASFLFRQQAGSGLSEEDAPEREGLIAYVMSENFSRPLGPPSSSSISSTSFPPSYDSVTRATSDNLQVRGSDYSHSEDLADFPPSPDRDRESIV

In the case of `FC(F)(F)c1ncc2ccc(-c3ccc(Oc4ccccc4)cc3)cn12` [BHN-7, 6-(4-phenoxyphenyl)-3-(trifluoromethyl)imidazo[1,5-a]pyridine], the inhibition at 10 µM came to 55.4%. Take `FC(F)(F)c1nnc2ccc(-c3cccc(Oc4ccccc4)c3)cn12` [BHN-9, 6-(3-phenoxyphenyl)-3-(trifluoromethyl)[1,2,4]triazolo[4,3-a]pyridine]: the inhibition at 1 µM is 29.6% and the inhibition at 10 µM is 75.7%. `FC(F)(F)c1cc(-c2ccc3nnc(C(F)(F)F)n3c2)ccc1Cl` [BHN-10, 6-[4-chloro-3-(trifluoromethyl)phenyl]-3-(trifluoromethyl)[1,2,4]triazolo[4,3-a]pyridine]: the inhibition at 10 µM is 51.2%. Consider `FC(F)(F)c1nnc2ccc(-c3ccc(Oc4ccccc4)cc3)nn12` [BHN-11, 6-(4-phenoxyphenyl)-3-(trifluoromethyl)[1,2,4]triazolo[4,3-b]pyridazine], for which the inhibition at 10 µM is 44.7%. For the molecule `FC(F)c1nnc2ccc(-c3ccc(OC(F)(F)F)cc3)nn12` [BHN-12, 3-(difluoromethyl)-6-[4-(trifluoromethoxy)phenyl][1,2,4]triazolo[4,3-b]pyridazine], the inhibition at 1 µM was determined as 39.6% and the inhibition at 10 µM was determined as 79.7%. As to `FC(F)c1nnc2ccc(-c3ccc(Oc4ccccc4)cc3)nn12` [BHN-13, 3-(difluoromethyl)-6-(4-phenoxyphenyl)[1,2,4]triazolo[4,3-b]pyridazine], the inhibition at 1 µM is 44.8% and the inhibition at 10 µM turned out to be 87.1%. As for `Fc1cc(-c2ccc3nnc(C(F)(F)F)n3c2)ccc1Cl` [BHN-14, 6-(4-chloro-3-fluorophenyl)-3-(trifluoromethyl)[1,2,4]triazolo[4,3-a]pyridine], the inhibition at 10 µM was 28.3%.

As to `FC(F)(F)c1nnc2cnc(-c3ccc(Oc4ccccc4)cc3)cn12` [BHN-16, 6-(4-phenoxyphenyl)-3-(trifluoromethyl)[1,2,4]triazolo[4,3-a]pyrazine], the inhibition at 10 µM was determined as 54.3%. For `Cc1cc2nnc(C(F)(F)F)n2cc1-c1cccc(OC(F)(F)F)c1` [BHN-17, 7-methyl-6-[3-(trifluoromethoxy)phenyl]-3-(trifluoromethyl)[1,2,4]triazolo[4,3-a]pyridine], the inhibition at 10 µM was determined as 25.3%. Still for that read-out and setting: for `FC(F)c1nnc2cnc(-c3ccc(Oc4ccccc4)cc3)cn12` [BHN-18, 3-(difluoromethyl)-6-(4-phenoxyphenyl)[1,2,4]triazolo[4,3-a]pyrazine] the value was 54.6%. Consider `O=C(O)Cc1nnc2ccc(-c3ccc(OC(F)(F)F)cc3)cn12` [BHN-19, {6-[4-(trifluoromethoxy)phenyl][1,2,4]triazolo[4,3-a]pyridin-3-yl}acetic acid], for which the inhibition at 10 µM was found to be 35.4%. Consider `FC(F)(F)Oc1ccc(-c2ccc3nnc(-c4ccccc4)n3c2)cc1` [BHN-21, 3-phenyl-6-[4-(trifluoromethoxy)phenyl][1,2,4]triazolo[4,3-a]pyridine], for which the inhibition at 1 µM stood at 65.2% and the inhibition at 10 µM came out at 86.5%.

`c1ccc(Oc2ccc(-c3ccc4nncn4n3)cc2)cc1` [BHN-22, 6-(4-phenoxyphenyl)[1,2,4]triazolo[4,3-b]pyridazine]: the inhibition at 10 µM turned out to be 59%. As for `FC(F)c1nnc2cnc(-c3ccc(OC(F)(F)F)cc3)cn12` [BHN-23, 3-(difluoromethyl)-6-[4-(trifluoromethoxy)phenyl][1,2,4]triazolo[4,3-a]pyrazine], the inhibition at 1 µM is 53.5% and the inhibition at 10 µM turned out to be 74.7%. With `FC(F)(F)Oc1ccc(-c2ccc3nncn3n2)cc1` [BHN-25, 6-[4-(trifluoromethoxy)phenyl][1,2,4]triazolo[4,3-b]pyridazine], the inhibition at 10 µM is 39%. Turning to `Cc1cc(OC(F)(F)F)ccc1-c1ccc2nnc(C(F)(F)F)n2n1` [BHN-26, 6-[2-methyl-4-(trifluoromethoxy)phenyl]-3-(trifluoromethyl)[1,2,4]triazolo[4,3-b]pyridazine], the inhibition at 1 µM came out at 64.4% and the inhibition at 10 µM was 75.3%.

For `FC(F)(F)COc1ccc(-c2ccc3cnc(C(F)(F)F)n3c2)cc1` [BHN-28, 6-[4-(2,2,2-trifluoroethoxy)phenyl]-3-(trifluoromethyl)imidazo[1,5-a]pyridine], the inhibition at 1 µM came to 46.1% and the inhibition at 10 µM worked out at 78.3%. On to `COc1ccc(-c2ccc3cnc(C(F)(F)F)n3c2)cc1` [BHN-30, 6-(4-methoxyphenyl)-3-(trifluoromethyl)imidazo[1,5-a]pyridine], for which the inhibition at 1 µM turned out to be 24.6% and the inhibition at 10 µM was 77.3%. For the molecule `FC(F)(F)Cc1nnc2ccc(-c3ccc(Oc4ccccc4)cc3)nn12` [BHN-31, 6-(4-phenoxyphenyl)-3-(2,2,2-trifluoroethyl)[1,2,4]triazolo[4,3-b]pyridazine], the inhibition at 1 µM was 57.5% and the inhibition at 10 µM is 82.6%.

As for `CC(C)c1nnc2ccc(-c3ccc(Oc4ccccc4)cc3)nn12` [BHN-32, 6-(4-phenoxyphenyl)-3-(propan-2-yl)[1,2,4]triazolo[4,3-b]pyridazine], the inhibition at 1 µM is 63.4% and the inhibition at 10 µM worked out at 83.4%. Regarding `Cc1cc(OC(F)(F)F)ccc1-c1ccc2nnc(C(C)C)n2n1` [BHN-33, 6-[2-methyl-4-(trifluoromethoxy)phenyl]-3-(propan-2-yl)[1,2,4]triazolo[4,3-b]pyridazine], the inhibition at 1 µM stood at 59.2% and the inhibition at 10 µM is 75.9%. Consider `FC(F)(F)Oc1ccc(-c2ccc3c(-c4ccccc4)nc(C(F)(F)F)n3c2)cc1` [BHN-34, 1-phenyl-6-[4-(trifluoromethoxy)phenyl]-3-(trifluoromethyl)imidazo[1,5-a]pyridine], for which the inhibition at 10 µM worked out at 33.4%. Consider `CC(C)(C)c1nnc2ccc(-c3ccc(Oc4ccccc4)cc3)nn12` [BHN-35, 3-tert-butyl-6-(4-phenoxyphenyl)[1,2,4]triazolo[4,3-b]pyridazine], for which the inhibition at 10 µM was found to be 68.6%. On to `CC(C)(C)c1nnc2ccc(-c3ccc(OCC(F)(F)F)cc3)nn12` [BHN-36, 3-tert-butyl-6-[4-(2,2,2-trifluoroethoxy)phenyl][1,2,4]triazolo[4,3-b]pyridazine], for which the inhibition at 10 µM was found to be 64.5%.

As for `CCc1nnc2ccc(-c3ccc(Oc4ccccc4)cc3)nn12` [BHN-38, 3-ethyl-6-(4-phenoxyphenyl)[1,2,4]triazolo[4,3-b]pyridazine], the inhibition at 1 µM is 54.5% and the inhibition at 10 µM was determined as 79.3%. Regarding `c1ccc(Oc2ccc(-c3ccc4nnc(C5CC5)n4n3)cc2)cc1` [BHN-39, 3-cyclopropyl-6-(4-phenoxyphenyl)[1,2,4]triazolo[4,3-b]pyridazine], the inhibition at 1 µM was 44.4% and the inhibition at 10 µM came to 74.3%. On to `N#Cc1ccc(-c2nnc3ccc(-c4ccc(Oc5ccccc5)cc4)nn23)cc1` [BHN-40, 4-[6-(4-phenoxyphenyl)[1,2,4]triazolo[4,3-b]pyridazin-3-yl]benzonitrile], for which the inhibition at 10 µM was 38.2%. For `Cc1cc(OC(F)(F)F)ccc1-c1ccc2nnc(-c3ccc(C#N)cc3)n2n1` [BHN-41, 4-{6-[2-methyl-4-(trifluoromethoxy)phenyl][1,2,4]triazolo[4,3-b]pyridazin-3-yl}benzonitrile], the inhibition at 10 µM was determined as 59.1%. The same measure, in the same setting: for `N#Cc1ccc(-c2nnc3ccc(-c4ccc(OC(F)(F)F)cc4)nn23)cc1` [BHN-42, 4-{6-[4-(trifluoromethoxy)phenyl][1,2,4]triazolo[4,3-b]pyridazin-3-yl}benzonitrile] the value was 43.8%; for `Cn1cc(-c2nnc3ccc(-c4ccc(Oc5ccccc5)cc4)nn23)cn1` [BHN-43, 3-(1-methyl-1H-pyrazol-4-yl)-6-(4-phenoxyphenyl)[1,2,4]triazolo[4,3-b]pyridazine], 25.2%.
